According to article PMC4473678, “Swedish mutant APP-based BACE1 binding site peptide reduces APP β-cleavage and cerebral Aβ levels in Alzheimer’s mice” (Scientific Reports, 2015):
“Also recorded” adds a separate entry of the source.

What was measured:
5XFAD mice [1] = experiment: Radial arm water maze (RAWM), 5XFAD mice; type: in vivo, mouse; details: 100 nmol/kg i.p. daily, 8 weeks, n = 10 per treatment, 5 female/5 male, listed as TAT-APPsweBBP
Method: (§1) Transgenic AD mice [5XFAD; B6SJL-Tg(APPSwFlLon,PSEN1*M146L*L286V) 6799Vas/Mmjax] at 2.5 months of age were obtained from the Jackson Laboratory (Bar Harbor, ME) and housed and maintained in the Animal Facility of College of Medicine at University of South Florida (USF). The mice at 3.5 months of age were treated with TAT-APPsweBBP, TAT peptide (100 nmol/kg in 100 μL PBS) or PBS (100 μL) daily by intraperitioneal injection (i.p.) for eight consecutive weeks. The mice were subjected to behavioral testing after 8-week treatment and then euthanized for immunohistochemical, WB and ELISA analyses. Animals were housed and maintained at USF and all experiments were in compliance with protocols approved by USF Institutional Animal Care and Use Committee. All methods were performed in accordance with relevant guidelines and regulations.
Spatial learning and memory performance was tested for each mouse using the Two-day Radial Arm Water Maze (RAWM) test[49]. The RAWM was carried out in a 100-cm circular pool with six swim alleys radiating from a common circular swim area. An escape platform was placed near the end of one arm, which forces mice to use working memory to perform this task. On day 1, mice are trained for 15 trials (5 blocks, 3 trials per block), with trials alternating between visible and hidden platform. […] Cognitive ability was assessed as the number of entry-arm errors.

WT mice = experiment: Rotarod test, WT mice; type: in vivo, mouse; details: 100 nmol/kg i.p. daily, 8 weeks, n = 10 per treatment
5XFAD mice [2] = experiment: β-amyloid immunohistochemistry (4G8), 5XFAD mice; type: in vivo, mouse; details: 100 nmol/kg i.p. daily, 8 weeks, RSC, EC and H regions, n = 10, 5 female/5 male, listed as TAT-APPsweBBP
Method: as §1
For paraffin brain tissues, we sectioned five coronal sections per region with a 100-μm interval and a thickness of 5-μm for retrosplenial cortex (RSC), entorhinal cortex (EC), and hippocampus (H), located at bregma −2.92 to −3.64 mm. […] Images were acquired as digitized tagged-image format files (to retain maximum resolution) using a BX60 microscope with an attached CCD camera system (DP-70, Olympus, Tokyo, Japan), and digital images were routed into a Windows PC for quantitative analyses using SimplePCI software (Hamamatsu Photonics, Hamamatsu, Shizuoka, Japan). […]

[3] = test system: cortex and hippocampus of 5XFAD mice; experiment: Extracellular and intracellular peptide levels in brain (WB); type: in vivo, mouse; details: i.p., *P < 0.05, **P < 0.01, listed as TAT-APPsweBBP
Method: For specific extraction of extracellular versus intracellular proteins, hemibrains were harvested and placed in 500 μl of solution containing 50 mM Tris-HCl, pH 7.6, 0.01% NP-40, 150 mM NaCl, 2 mM EDTA, 0.1% SDS, 1 mM phenylmethylsulfonyl fluoride, and protease inhibitor cocktail (Sigma) as previously describe. Soluble, extracellular proteins were collected from mechanically homogenized lysates after centrifugation for 5 min at 3000 rpm. Cytoplasmic proteins were extracted from cell pellets mechanically dissociated with a micropipettor in 500 μl of TNT buffer (50 mM Tris-HCl, pH 7.6, 150 mM NaCl, and 0.1% Triton X-100) after centrifugation for 90 min at 13,000 rpm. Insoluble material was incubated with 20 μl of 70% formic acid, mechanically dissociated with a micropipette, gently agitated for 1 h, and buffered with 380 μl of 1 M Tris-HCl, pH 8.0. Samples were centrifuged for 90 min at 13,000 rpm, and supernatants were collected for analysis.
WB analysis was performed as previously described. Briefly, the proteins from the various cell-free suspensions, cell lysates and brain homogenates were electrophoretically separated using 10% bicine/tris gel (8 M urea) for proteins less than 5 kD or 10% tricine/tris gels for larger proteins. […]

BACE1 in CHO/APPwt cells = experiment: Co-localization with BACE1 in CHO/APPwt cells (immunocytochemistry); type: cell-based, Chinese hamster; details: biotin-labeled peptide 20 μM, 30 min, anti-BACE1 and anti-biotin staining
Method: Following application of blocking buffer, these cells were stained with mouse anti-BACE1 and anti-biotin antibodies overnight at 4 °C for immunocytochemical analysis. In order to determine the inhibitory effects of TAT-APPsweBBP on BACE1-mediated APP β-cleavage and subsequent Aβ production, both CHO/APPwt and CHO/APPswe cells were plated in 24 well-plates (3×10^5/well) and treated with TAT-APPsweBBP at 0 to 20 μM for 24 h. The cultured media were collected for Aβ and sAPPα analysis by ELISA and WB. Cell lysates were also prepared for analysis of APP amyloidogenic processing by WB.

brain of 5XFAD mice = experiment: BBB penetration after i.p. administration (brain section confocal imaging)
Method: 5XFAD mice at 2 months of age (n = 5, female) were treated intraperitoneally with biotin-labeled TAT-APPsweBBP or APPsweBBP (100 nmol/kg) daily for 5 days and then euthanized 4 h after the last injection. Brain tissues were removed, sectioned and stained with anti-BACE1 and anti-biotin antibodies.
Fixed cell cultures and brain sections were stained with indicated antibodies and then treated with donkey anti-mouse IgG conjugated with Alexa Fluor 488 (1:200) or goat anti-rabbit IgG conjugated with Alexa Fluor 594 (1:200; Invitrogen, Carlsbad, CA). The slides were then washed, mounted with DAPI medium (Vector Laboratories, Burlingame, CA) and visualized with an Olympus FV1000 confocal microscope (Tokyo, Japan).

With YGRKKRRQRRREISEVNLDAEFR the “RAWM entry-arm errors (learning and memory)” value (5XFAD mice [1]) was “significantly fewer errors, compared to TAT- and PBS-treated mice; also recorded: enhanced cognitive ability, as evidenced by fewer errors”, the “rotarod latency to fall” value (WT mice) was “no differences between treatment groups on each day” and the “β-amyloid plaques / 4G8 immunoreactive area” value (5XFAD mice [2]) was “greatly reduced; also recorded: markedly reduced β-amyloid plaques; also recorded: significant differences between TAT-APPsweBBP and TAT peptide treatment groups (**P < 0.01)”. The “intracellular versus extracellular distribution in brain” value [3] was “higher intracellular TAT-APPsweBBP distribution; also recorded: prefers to enter into cytoplasm of brain cells”, the “co-localization with BACE1” value (BACE1 in CHO/APPwt cells; listed as TAT-APPsweBBP) was “much more strongly co-localized with BACE1 protein compared to APPsweBBP” and the “co-localization with BACE1” value (BACE1 in CHO/APPwt cells; listed as TAT-APPsweBPP) was “strong association with BACE1 in both cytoplasmic membrane and intracellular compartments”. The “association with BACE1 in brain” value (brain of 5XFAD mice; 5XFAD mice, 2 months, n = 5, female, biotin-labeled peptide 100 nmol/kg i.p. daily 5 days, 4 h after last injection) was “more highly associates with BACE1 compared to APPsweBBP”, the “BBB penetration / brain distribution” value (brain of 5XFAD mice; 5XFAD mice, 2 months, n = 5, female, biotin-labeled peptide 100 nmol/kg i.p. daily 5 days, 4 h after last injection, confocal images, listed as TAT-APPsweBBP) was “highly penetrated the BBB and was detectable in both the cortical and hippocampal regions; also recorded: more permeable across the BBB; also recorded: greater distribution of TAT-APPsweBBP than APPsweBBP into cortical and hippocampal regions” and the “BBB penetration (Fig. S4 legend)” value (brain of 5XFAD mice; peripheral injection, Fig. S4) was “freely enters brain microvascular endothelial cells”.
